Consider 1 compound from article PMC9798004 (Frontiers in Psychiatry, 2022).

Usually IC50 stands for the concentration that gives 50% inhibition. Lower therefore signals greater potency.

Holding throughout (assay): PathHunter β-arrestin assay
What all share (assay type): cell-based

For one assay, the target named is T1, HCRTR1 (Homo sapiens, UniProt O43613).
T1 sequence (O43613 1-425): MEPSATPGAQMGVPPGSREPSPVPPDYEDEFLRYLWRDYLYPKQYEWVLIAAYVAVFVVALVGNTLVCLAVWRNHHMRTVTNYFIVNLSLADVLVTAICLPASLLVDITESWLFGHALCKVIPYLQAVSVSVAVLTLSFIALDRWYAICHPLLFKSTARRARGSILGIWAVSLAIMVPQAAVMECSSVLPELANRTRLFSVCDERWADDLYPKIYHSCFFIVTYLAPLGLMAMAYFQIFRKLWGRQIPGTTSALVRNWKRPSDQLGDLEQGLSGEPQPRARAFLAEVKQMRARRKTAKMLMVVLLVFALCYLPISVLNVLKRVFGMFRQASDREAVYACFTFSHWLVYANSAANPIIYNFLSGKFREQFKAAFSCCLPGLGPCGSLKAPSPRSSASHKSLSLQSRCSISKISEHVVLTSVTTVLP

The target in a further assay is PTGER4 (Homo sapiens, UniProt P35408). Conditions: antagonist mode vs EC80 of control agonist, 10-point curve.
A further assay addresses CCR8 (Homo sapiens, UniProt P51685). Conditions: antagonist mode vs EC80 of control agonist, 10-point curve.
The target in another assay is P2RY6 (Homo sapiens, UniProt Q15077). Conditions: antagonist mode, up to 30 μM.
The target in the next assay is T2, CCR10 (Homo sapiens, UniProt P46092).
T2 sequence (P46092 1-362): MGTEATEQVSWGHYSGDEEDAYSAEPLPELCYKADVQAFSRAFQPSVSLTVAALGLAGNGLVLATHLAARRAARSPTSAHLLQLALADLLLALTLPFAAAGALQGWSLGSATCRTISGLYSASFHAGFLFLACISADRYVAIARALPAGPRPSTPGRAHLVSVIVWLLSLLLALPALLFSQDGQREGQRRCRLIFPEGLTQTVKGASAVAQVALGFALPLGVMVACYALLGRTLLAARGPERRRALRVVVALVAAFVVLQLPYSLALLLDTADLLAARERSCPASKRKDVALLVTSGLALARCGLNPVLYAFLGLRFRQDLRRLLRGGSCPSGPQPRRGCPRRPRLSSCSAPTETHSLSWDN
Conditions: antagonist mode vs EC80 of control agonist, 10-point curve. The essentials: (§1)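 10-pt CRC, 1.5–30 μM, technical replicate; antagonist mode vs agonist at EC80 where applicable. Agonist and antagonist curves run in parallel, Z' >0.5. RC50 by four-parameter fit of normalized data.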

The next assay deals with T3, GLP2R (Homo sapiens, UniProt O95838).
T3 sequence (O95838 1-553): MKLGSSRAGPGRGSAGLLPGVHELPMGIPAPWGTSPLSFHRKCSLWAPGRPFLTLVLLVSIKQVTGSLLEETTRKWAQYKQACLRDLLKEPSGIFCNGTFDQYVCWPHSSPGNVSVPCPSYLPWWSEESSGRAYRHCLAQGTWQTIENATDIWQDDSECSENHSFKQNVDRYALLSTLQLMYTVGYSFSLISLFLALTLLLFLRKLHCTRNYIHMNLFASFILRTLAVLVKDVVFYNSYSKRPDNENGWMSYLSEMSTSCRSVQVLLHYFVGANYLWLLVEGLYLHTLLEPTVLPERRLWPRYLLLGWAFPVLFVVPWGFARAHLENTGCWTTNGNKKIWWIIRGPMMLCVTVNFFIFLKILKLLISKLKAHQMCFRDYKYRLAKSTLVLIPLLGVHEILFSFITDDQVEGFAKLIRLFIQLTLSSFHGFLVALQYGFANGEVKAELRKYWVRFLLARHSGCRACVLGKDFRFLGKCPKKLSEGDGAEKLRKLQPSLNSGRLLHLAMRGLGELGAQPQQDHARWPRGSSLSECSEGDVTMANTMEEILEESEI
Conditions: antagonist mode vs EC80 of control agonist, 10-point curve. The essentials:
as §1

For a further assay, the target named is T4, CCR9 (Homo sapiens, UniProt P51686).
T4 construct: purchased Eurofins DiscoverX (PathHunter gpcrMAX)
T4 sequence (P51686 1-369): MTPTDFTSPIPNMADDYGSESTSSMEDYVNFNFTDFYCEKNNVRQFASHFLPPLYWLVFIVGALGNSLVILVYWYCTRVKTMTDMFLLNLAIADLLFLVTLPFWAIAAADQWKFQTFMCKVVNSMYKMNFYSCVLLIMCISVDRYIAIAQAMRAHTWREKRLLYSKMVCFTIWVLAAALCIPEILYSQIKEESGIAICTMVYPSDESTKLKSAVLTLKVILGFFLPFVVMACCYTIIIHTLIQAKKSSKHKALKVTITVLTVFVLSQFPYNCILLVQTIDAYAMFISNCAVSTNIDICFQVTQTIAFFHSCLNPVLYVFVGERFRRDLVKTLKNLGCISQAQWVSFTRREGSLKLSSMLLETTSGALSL
Conditions: antagonist mode, up to 30 μM.

For the next assay, the target named is T5, MRGPRX2 (Homo sapiens, UniProt Q96LB1).
T5 sequence (Q96LB1 1-330): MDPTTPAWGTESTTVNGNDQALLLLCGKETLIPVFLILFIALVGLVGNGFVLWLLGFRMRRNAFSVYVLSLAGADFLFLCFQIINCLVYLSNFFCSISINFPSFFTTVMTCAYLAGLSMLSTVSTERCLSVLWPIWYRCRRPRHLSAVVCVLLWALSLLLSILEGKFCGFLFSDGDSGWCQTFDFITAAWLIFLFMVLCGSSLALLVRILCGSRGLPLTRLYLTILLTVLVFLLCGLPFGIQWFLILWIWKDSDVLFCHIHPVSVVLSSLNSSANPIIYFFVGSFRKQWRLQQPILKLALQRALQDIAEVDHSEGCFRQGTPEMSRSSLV
Conditions: antagonist mode vs EC80 of control agonist, 10-point curve.

Each structure is given as a SMILES string. “Also recorded” adds a separate entry of the source.

Chain of P2RY6 (Q15077 whole entry): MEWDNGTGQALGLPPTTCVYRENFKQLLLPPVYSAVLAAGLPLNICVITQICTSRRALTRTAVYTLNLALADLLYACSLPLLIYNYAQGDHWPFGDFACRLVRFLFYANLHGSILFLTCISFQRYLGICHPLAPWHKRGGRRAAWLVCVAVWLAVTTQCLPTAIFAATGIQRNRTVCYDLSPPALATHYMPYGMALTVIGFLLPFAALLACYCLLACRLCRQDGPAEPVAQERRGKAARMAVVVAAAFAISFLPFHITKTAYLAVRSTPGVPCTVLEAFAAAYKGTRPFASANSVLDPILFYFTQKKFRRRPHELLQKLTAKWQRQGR
Chain of PTGER4 (P35408 whole entry): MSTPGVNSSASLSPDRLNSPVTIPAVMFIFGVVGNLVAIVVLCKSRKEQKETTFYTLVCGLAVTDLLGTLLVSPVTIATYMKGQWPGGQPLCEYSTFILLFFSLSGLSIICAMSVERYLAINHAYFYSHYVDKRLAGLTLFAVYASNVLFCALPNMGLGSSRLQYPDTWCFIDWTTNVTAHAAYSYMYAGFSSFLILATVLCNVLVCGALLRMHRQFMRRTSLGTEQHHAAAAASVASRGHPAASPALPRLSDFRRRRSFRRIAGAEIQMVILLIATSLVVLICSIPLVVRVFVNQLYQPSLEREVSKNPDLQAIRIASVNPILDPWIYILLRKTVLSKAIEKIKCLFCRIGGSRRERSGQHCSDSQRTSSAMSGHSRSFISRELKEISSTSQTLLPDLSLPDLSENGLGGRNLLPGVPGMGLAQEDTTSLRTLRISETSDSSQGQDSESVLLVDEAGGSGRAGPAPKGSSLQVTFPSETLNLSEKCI
Chain of CCR8 (P51685 whole entry): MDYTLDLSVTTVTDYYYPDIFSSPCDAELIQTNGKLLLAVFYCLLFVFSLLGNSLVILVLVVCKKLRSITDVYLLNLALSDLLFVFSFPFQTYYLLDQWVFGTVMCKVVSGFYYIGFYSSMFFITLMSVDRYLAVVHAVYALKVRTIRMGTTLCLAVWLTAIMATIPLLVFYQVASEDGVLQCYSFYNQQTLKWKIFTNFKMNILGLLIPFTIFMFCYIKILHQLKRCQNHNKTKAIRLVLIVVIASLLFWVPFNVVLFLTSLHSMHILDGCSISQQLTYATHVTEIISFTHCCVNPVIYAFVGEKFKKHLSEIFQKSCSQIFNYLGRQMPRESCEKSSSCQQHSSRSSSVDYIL

For `COC(=O)[C@@H](NC(=O)c1nn(Cc2ccc(F)cc2)c2ccccc12)C(C)C` [AMB-FUBINACA], the IC50 on HCRTR1 (antagonist mode vs EC80 of control agonist, 10-point curve) was 8.59 µM; at PTGER4, 3.13 µM; on CCR8, 7.99 µM; on CCR10, 12.3 µM; on GLP2R, 13.1 µM; at MRGPRX2, 11.8 µM. The compound also displayed a maximum inhibition at HCRTR1 (antagonist mode, concentration-response up to 30 μM) of 73.00%. Further, the “inhibitory activity in concentration-response” value against P2RY6 is on record as “Activity was only observed at the highest concentration (30 μM)”; at CCR9, “Activity was only observed at the highest concentration (30 μM); also recorded: only inhibited at the highest 30 μM concentration”.
